# Key:
# Assay in all cases: relative viability (nuclei count vs DMSO), 5 days (fraction); higher = more cells survive
# HCC-78 = system: HCC-78
# In short: (§1)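 A single step with final 0.05% Triton X-100, 1% formaldehyde and 1 ug/ml Hoechst fixed the cells and stained nuclei 5 days after treatment. Lung cancer cell lines in 1536-well plates had been treated by pin tool the day after seeding with one drug alone or a fixed anchor-drug dose plus five library-drug doses (not always all listed) in √10 steps, and nuclei were counted on 4× images. Relative viability is the ratio of nuclei in treated wells to nuclei in vehicle wells, taken as the median of duplicate plates.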
# SK-LU-1 = system: SK-LU-1
# In short: as §1
# NCI-H358 = system: NCI-H358
# In short: as §1
# NCI-H1915 = system: NCI-H1915
# In short: as §1
# NCI-H2126 = system: NCI-H2126
# In short: as §1
# NCI-H2342 = system: NCI-H2342
# In short: as §1
# NCI-H1792 = system: NCI-H1792
# In short: as §1
# RERF-LC-KJ = system: RERF-LC-KJ
# In short: as §1
# LXF-289 = system: LXF-289
# In short: as §1
# NCI-H647 = system: NCI-H647
# In short: as §1
# LC-2-ad = system: LC-2-ad
# In short: as §1
# NCI-H2347 = system: NCI-H2347
# In short: as §1
# NCI-H522 = system: NCI-H522
# In short: as §1
# NCI-H2228 = system: NCI-H2228
# In short: as §1
# NCI-H1975 = system: NCI-H1975
# In short: as §1
# NCI-H1755 = system: NCI-H1755
# In short: as §1
# HOP-62 = system: HOP-62
# In short: as §1
# HCC-15 = system: HCC-15
# In short: as §1
# SW 1573 = system: SW 1573
# In short: as §1
# A-427 = system: A-427
# In short: as §1
# PC-3 [JPC-3] = system: PC-3 [JPC-3]
# In short: as §1
# NCI-H1734 = system: NCI-H1734
# In short: as §1
compound,measurement,setting,value
CCN(CC)CCCCNc1ncc2cc(-c3cc(OC)cc(OC)c3)c(NC(=O)NC(C)(C)C)nc2n1 + O=C(c1cc(Cc2n[nH]c(=O)c3ccccc23)ccc1F)N1CCN(C(=O)C2CC2)CC1 [Olaparib] (partner 8 µM),relative viability,HCC-78; first compound 0.01 µM,0.82
same,relative viability,HCC-78; first compound 0.03162 µM,0.782
same,relative viability,HCC-78; first compound 0.1 µM,0.802
same,relative viability,HCC-78; first compound 0.3162 µM,0.94
same,relative viability,HCC-78; first compound 1 µM,0.771
same,relative viability,SK-LU-1; first compound 0.01 µM,0.447
same,relative viability,SK-LU-1; first compound 0.03162 µM,0.404
same,relative viability,SK-LU-1; first compound 0.1 µM,0.477
same,relative viability,SK-LU-1; first compound 0.3162 µM,0.472
same,relative viability,SK-LU-1; first compound 1 µM,0.433
same,relative viability,NCI-H358; first compound 0.01 µM,0.683
same,relative viability,NCI-H358; first compound 0.03162 µM,0.642
same,relative viability,NCI-H358; first compound 0.1 µM,0.744
same,relative viability,NCI-H358; first compound 0.3162 µM,0.69
same,relative viability,NCI-H358; first compound 1 µM,0.469
same,relative viability,NCI-H1915; first compound 0.01 µM,0.234
same,relative viability,NCI-H1915; first compound 0.03162 µM,0.291
same,relative viability,NCI-H1915; first compound 0.1 µM,0.239
same,relative viability,NCI-H1915; first compound 0.3162 µM,0.245
same,relative viability,NCI-H1915; first compound 1 µM,0.222
same,relative viability,NCI-H2126; first compound 0.01 µM,1.03
same,relative viability,NCI-H2126; first compound 0.03162 µM,0.948
same,relative viability,NCI-H2126; first compound 0.1 µM,0.976
same,relative viability,NCI-H2126; first compound 0.3162 µM,0.984
same,relative viability,NCI-H2126; first compound 1 µM,0.899
same,relative viability,NCI-H2342; first compound 0.01 µM,0.476
same,relative viability,NCI-H2342; first compound 0.03162 µM,0.437
same,relative viability,NCI-H2342; first compound 0.1 µM,0.459
same,relative viability,NCI-H2342; first compound 0.3162 µM,0.509
same,relative viability,NCI-H2342; first compound 1 µM,0.519
same,relative viability,NCI-H1792; first compound 0.01 µM,0.547
same,relative viability,NCI-H1792; first compound 0.03162 µM,0.475
same,relative viability,NCI-H1792; first compound 0.1 µM,0.668
same,relative viability,NCI-H1792; first compound 0.3162 µM,0.77
same,relative viability,NCI-H1792; first compound 1 µM,0.317
same,relative viability,RERF-LC-KJ; first compound 0.01 µM,1.01
same,relative viability,RERF-LC-KJ; first compound 0.03162 µM,0.92
same,relative viability,RERF-LC-KJ; first compound 0.1 µM,1.12
same,relative viability,RERF-LC-KJ; first compound 0.3162 µM,1.05
same,relative viability,RERF-LC-KJ; first compound 1 µM,0.963
same,relative viability,LXF-289; first compound 0.01 µM,1.14
same,relative viability,LXF-289; first compound 0.03162 µM,1.11
same,relative viability,LXF-289; first compound 0.1 µM,1.25
same,relative viability,LXF-289; first compound 0.3162 µM,1.1
same,relative viability,LXF-289; first compound 1 µM,1.08
same,relative viability,NCI-H647; first compound 0.01 µM,0.476
same,relative viability,NCI-H647; first compound 0.03162 µM,0.732
same,relative viability,NCI-H647; first compound 0.1 µM,0.674
same,relative viability,NCI-H647; first compound 0.3162 µM,0.563
same,relative viability,NCI-H647; first compound 1 µM,0.393
same,relative viability,LC-2-ad; first compound 0.01 µM,0.776
same,relative viability,LC-2-ad; first compound 0.03162 µM,0.744
same,relative viability,LC-2-ad; first compound 0.1 µM,0.787
same,relative viability,LC-2-ad; first compound 0.3162 µM,0.788
same,relative viability,LC-2-ad; first compound 1 µM,0.668
same,relative viability,NCI-H2347; first compound 0.01 µM,0.585
same,relative viability,NCI-H2347; first compound 0.03162 µM,0.579
same,relative viability,NCI-H2347; first compound 0.1 µM,0.617
same,relative viability,NCI-H2347; first compound 0.3162 µM,0.655
same,relative viability,NCI-H2347; first compound 1 µM,0.602
same,relative viability,NCI-H522; first compound 0.01 µM,0.687
same,relative viability,NCI-H522; first compound 0.03162 µM,0.544
same,relative viability,NCI-H522; first compound 0.1 µM,0.708
same,relative viability,NCI-H522; first compound 0.3162 µM,0.85
same,relative viability,NCI-H522; first compound 1 µM,0.663
same,relative viability,NCI-H2228; first compound 0.01 µM,0.799
same,relative viability,NCI-H2228; first compound 0.03162 µM,0.8
same,relative viability,NCI-H2228; first compound 0.1 µM,0.824
same,relative viability,NCI-H2228; first compound 0.3162 µM,0.547
same,relative viability,NCI-H2228; first compound 1 µM,0.571
same,relative viability,NCI-H1975; first compound 0.01 µM,0.85
same,relative viability,NCI-H1975; first compound 0.03162 µM,0.791
same,relative viability,NCI-H1975; first compound 0.1 µM,1.05
same,relative viability,NCI-H1975; first compound 0.3162 µM,0.903
same,relative viability,NCI-H1975; first compound 1 µM,0.708
same,relative viability,NCI-H1755; first compound 0.01 µM,0.874
same,relative viability,NCI-H1755; first compound 0.03162 µM,0.947
same,relative viability,NCI-H1755; first compound 0.1 µM,0.958
same,relative viability,NCI-H1755; first compound 0.3162 µM,1.01
same,relative viability,NCI-H1755; first compound 1 µM,0.934
same,relative viability,HOP-62; first compound 0.01 µM,0.608
same,relative viability,HOP-62; first compound 0.03162 µM,0.523
same,relative viability,HOP-62; first compound 0.1 µM,0.416
same,relative viability,HOP-62; first compound 0.3162 µM,0.823
same,relative viability,HOP-62; first compound 1 µM,0.383
same,relative viability,HCC-15; first compound 0.01 µM,0.681
same,relative viability,HCC-15; first compound 0.03162 µM,0.777
same,relative viability,HCC-15; first compound 0.1 µM,0.783
same,relative viability,HCC-15; first compound 0.3162 µM,0.82
same,relative viability,HCC-15; first compound 1 µM,0.728
same,relative viability,SW 1573; first compound 0.01 µM,0.513
same,relative viability,SW 1573; first compound 0.03162 µM,0.551
same,relative viability,SW 1573; first compound 0.1 µM,0.613
same,relative viability,SW 1573; first compound 0.3162 µM,0.522
same,relative viability,SW 1573; first compound 1 µM,0.421
same,relative viability,A-427; first compound 0.01 µM,0.781
same,relative viability,A-427; first compound 0.03162 µM,0.746
same,relative viability,A-427; first compound 0.1 µM,0.838
same,relative viability,A-427; first compound 0.3162 µM,0.816
same,relative viability,A-427; first compound 1 µM,0.685
same,relative viability,PC-3 [JPC-3]; first compound 0.03162 µM,1.08
same,relative viability,PC-3 [JPC-3]; first compound 0.1 µM,1.29
same,relative viability,PC-3 [JPC-3]; first compound 0.3162 µM,1.19
same,relative viability,PC-3 [JPC-3]; first compound 1 µM,1.07
same,relative viability,NCI-H1734; first compound 0.01 µM,0.595
same,relative viability,NCI-H1734; first compound 0.03162 µM,0.614
same,relative viability,NCI-H1734; first compound 0.1 µM,0.746
same,relative viability,NCI-H1734; first compound 0.3162 µM,0.638
same,relative viability,NCI-H1734; first compound 1 µM,0.569

# Source: the supplement of paper PMC10307832
